Experimental data published in paper PMC7660650, “Chemical Starting Matter for HNF4α Ligand Discovery and Chemogenomics” (International Journal of Molecular Sciences, 2020).
“And” between values parts separate entries of the source, which are not always exact repeats. Equal values may be shown once.

Each compound was assayed against T1, Gal4-HNF4α (human HNF4α LBD) (Homo sapiens, UniProt P41235) (assay: Hybrid Gal4-HNF4α reporter gene assay in transiently transfected HEK293T cells). Conditions: not given.
T1 construct: uniprot entry: P41235-1, residues 142-377; expressed in transfected cells; host or cells: HEK293T
T1 sequence (P41235 142-377): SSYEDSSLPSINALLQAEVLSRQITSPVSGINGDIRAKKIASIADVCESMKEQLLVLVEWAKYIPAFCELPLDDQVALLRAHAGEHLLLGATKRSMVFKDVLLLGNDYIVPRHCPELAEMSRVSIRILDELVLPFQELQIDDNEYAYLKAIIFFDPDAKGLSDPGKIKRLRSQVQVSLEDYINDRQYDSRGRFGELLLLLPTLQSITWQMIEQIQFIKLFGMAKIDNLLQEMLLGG
Format: cell-based
For `c1ccc2c3c([nH]c2c1)CCCC3` [Prestw-Frag-2780, C1CCc2c(C1)[nH]c1ccccc21], the “HNF4a-screening_activity_(mean_of_n=2)” value was 0.7267.

Same assay, conditions: Table S1, primary screening, 50 µM
`O=C(O)c1cnccn1` [Prestw-Frag-1495, OC(=O)c1cnccn1] was tested, and the “HNF4a-screening_activity_(mean_of_n=2)” value was 1.013. With `CC(=O)Nc1ncc([N+](=O)[O-])s1` [Prestw-Frag-1750, CC(=O)Nc1ncc(s1)[N+]([O-])=O] the “HNF4a-screening_activity_(mean_of_n=2)” value was 1.04 and 0.8827. In the case of `CCCC(=O)c1ccc(F)cc1` [Prestw-Frag-1368, CCCC(=O)c1ccc(F)cc1], the “HNF4a-screening_activity_(mean_of_n=2)” value is reported as 1.103. With `Clc1ccc(C(c2ccccc2)N2CCNCC2)cc1` (stereo not drawn) [Prestw-Frag-1741, Clc1ccc(cc1)C(N1CCNCC1)c1ccccc1] the “HNF4a-screening_activity_(mean_of_n=2)” value was 1.086. In the case of `NC(=O)N1CCNCC1` [Prestw-Frag-3723, NC(=O)N1CCNCC1], the “HNF4a-screening_activity_(mean_of_n=2)” value is reported as 1.067. With `O=C1CNCCN1` [Prestw-Frag-3458, O=C1CNCCN1] the “HNF4a-screening_activity_(mean_of_n=2)” value was 1.246. `c1ccc(-n2ccc3ccccc32)cc1` [Prestw-Frag-3011, c1cc2ccccc2n1-c1ccccc1] was tested, and the “HNF4a-screening_activity_(mean_of_n=2)” value was 0.7452. In the case of `CC(CO)Nc1ccccc1` (stereo not drawn) [Prestw-Frag-3755, CC(CO)Nc1ccccc1], the “HNF4a-screening_activity_(mean_of_n=2)” value is reported as 0.8925. In the case of `NC1CCc2ccccc21` (stereo not drawn) [Prestw-Frag-3462, NC1CCc2ccccc12], the “HNF4a-screening_activity_(mean_of_n=2)” value is reported as 1.151. In the case of `c1cc2c(cc1CN1CCNCC1)OCO2` [Prestw-Frag-1397, C(N1CCNCC1)c1ccc2OCOc2c1], the “HNF4a-screening_activity_(mean_of_n=2)” value is reported as 1.012. `CC(N)COc1ccccc1` (stereo not drawn) [Prestw-Frag-1691, CC(N)COc1ccccc1] was tested, and the “HNF4a-screening_activity_(mean_of_n=2)” value was 0.7151 and 1.122. In the case of `COc1ccccc1N1CCN(CCCN)CC1` [Prestw-Frag-2569, COc1ccccc1N1CCN(CCCN)CC1], the “HNF4a-screening_activity_(mean_of_n=2)” value is reported as 1.212. In the case of `COC(=O)C(O)c1ccccc1` (stereo not drawn) [Prestw-Frag-2423, COC(=O)C(O)c1ccccc1], the “HNF4a-screening_activity_(mean_of_n=2)” value is reported as 1.193. For `O=C(O)C(c1ccccc1)c1ccccc1` [Prestw-Frag-3711, OC(=O)C(c1ccccc1)c1ccccc1], the “HNF4a-screening_activity_(mean_of_n=2)” value was 1.082.
